# Assay results as given in ChEMBL document CHEMBL1136823, “Lead discovery of alpha,beta-unsaturated sulfones from a combinatorial library as inhibitors of inducible VCAM-1 expression” (Bioorg Med Chem Lett, 2003).
# Experiment: In vitro inhibition of inducible vascular cell adhesion molecule-1 (VCAM-1) expression in Human aortic endothelial cells (HAEC); NE denotes no effect; call rule not given here
# Assay type: functional, cell-based
row,SMILES,IC50
1,CCOC(=O)CNCCS(=O)(=O)c1ccccc1,Not Active
2,O=C1c2ccccc2C(=O)N1CCS(=O)(=O)c1ccccc1,Not Active
3,CCCCCCCCNc1cccc(S(=O)(=O)CCOC(C)=O)c1,Not Active
4,CCCCCCCCOCCS(=O)(=O)c1ccccc1,Not Active
5,Nc1cccc(S(=O)(=O)CCO)c1,Not Active
6,CCCNc1cccc(S(=O)(=O)CCOC(C)=O)c1,Not Active
7,O=S(=O)(c1ccccc1)c1ccsc1,Not Active
8,COC(=O)CS(=O)(=O)c1ccccc1,Not Active
9,CC(=O)CCCS(=O)(=O)c1ccccc1,Not Active
10,CCCOCCS(=O)(=O)c1cccc(N)c1,Not Active
11,CCS(=O)(=O)c1ccccc1,Not Active
12,CCN(CC)CCS(=O)(=O)c1ccccc1,Not Active
13,O=S(=O)(CCNCc1ccccc1)c1ccccc1,Not Active
14,O=S(=O)(c1ccccc1)c1cccs1,Not Active
15,C=CCCS(=O)(=O)c1ccccc1,Not Active
16,CCOCCS(=O)(=O)c1ccccc1,Not Active
17,C=C[S+]([O-])c1ccccc1 (configuration not stated),Not Active

# Experiment: In vitro inhibition of inducible vascular cell adhesion molecule-1 (VCAM-1) expression in Human aortic endothelial cells (HAEC)
# Assay type: functional, cell-based
row,SMILES,IC50
1,CCCCCC#CC(=O)Nc1cccc(S(=O)(=O)CCO)c1,20 µM
2,O=S1(=O)C=Cc2ccccc21,4 µM
3,C=CS(C)(=O)=O,14 µM
4,C=CS(=O)(=O)c1ccccc1 [(ETHENYLSULFONYL)BENZENE],2 µM
5,CCCCC/C=C/C(=O)OCCS(=O)(=O)c1ccccc1,17 µM
6,CC(=O)Nc1cccc(S(=O)(=O)CCOC(C)=O)c1,4 µM
7,C=CS(=O)(=O)c1cccc(NCCCCCCCC)c1,29 µM
8,CCCCCCC/C=C/C(=O)Nc1cccc(S(=O)(=O)CCO)c1,23 µM
9,CCCCCC#CC(=O)OCCS(=O)(=O)c1cccc(N)c1,6 µM
10,C=CC(=O)OCCS(=O)(=O)c1ccccc1,7 µM
11,CC(=O)OCCS(=O)(=O)c1cccc(N)c1,10 µM
12,CC(=O)OCCS(=O)(=O)c1ccccc1,12 µM
13,CCCCC/C=C/C(=O)OCCS(=O)(=O)c1cccc(N)c1,17 µM
14,CCCCCCC/C=C/C(=O)OCCS(=O)(=O)c1cccc(N)c1,28 µM
15,O=S(=O)(CCCl)c1ccccc1,2 µM
